Molecules are shown by their SMILES.

One experiment has as its system mouse immortalized TT-D6 Scx-luciferase (ScxL) cell line; transcriptional activation of Scleraxis (Scx) gene. As to the kind of experiment: SCX-LUC in vitro assay (scleraxis promoter luciferase reporter). Type of experiment: cell-based. Particulars: Mus musculus, 96 h; Examples table; TT-D6 Scx-luciferase cells, 1 ng/ml TGFβ1, four days; read-out: Scx-Luc (EC50 μM). In general terms: Reporter assays use an easily measured gene product as a stand-in for the process of interest.
As usually defined, the EC50 is the midpoint of the concentration-response curve. As for `Nc1n[nH]c2ccc(-c3ccc(S(=O)(=O)NC4CC(F)(F)C4)cc3Cl)nc12` [Example 4, 4-(3-amino-1H-pyrazolo[4,3-b]pyridin-5-yl)-3-chloro-N-(3,3-difluorocyclobutyl)benzenesulfonamide], the EC50 came out at 0.444 µM. For the compound `COc1ccc(S(=O)(=O)Nc2ccc(-c3ccc4[nH]nc(N)c4n3)c(Cl)c2)cc1` [Example 5, N-(4-(3-amino-1H-pyrazolo[4,3-b]pyridin-5-yl)-3-chlorophenyl)-4-methoxybenzenesulfonamide], the EC50 was found to be 0.909 µM. As for `Nc1n[nH]c2ccc(-c3ccc(NS(=O)(=O)c4ccc(F)cc4)cc3Cl)nc12` [Example 6, N-(4-(3-amino-1H-pyrazolo[4,3-b]pyridin-5-yl)-3-chlorophenyl)-4-fluorobenzenesulfonamide], the EC50 came out at 0.58 µM. Same read-out and setting: the same measure for `Nc1n[nH]c2ccc(-c3ccc(NS(=O)(=O)c4ccc(F)c(F)c4)cc3Cl)nc12` [Example 10, N-(4-(3-amino-1H-pyrazolo[4,3-b]pyridin-5-yl)-3-chlorophenyl)-3,4-difluorobenzenesulfonamide]: 0.64 µM; for `Nc1n[nH]c2ccc(-c3ccc(NS(=O)(=O)c4ccc(Cl)c(F)c4)cc3Cl)nc12` [Example 13, N-(4-(3-amino-1H-pyrazolo[4,3-b]pyridin-5-yl)-3-chlorophenyl)-4-chloro-3-fluorobenzenesulfonamide]: 1.34 µM. On the same count and under the same terms, the same measure for `Nc1n[nH]c2ccc(-c3ccc(NS(=O)(=O)[C@H]4CCCC[C@H]4O)cc3Cl)nc12` [Example 14, (1S,2R)—N-(4-(3-amino-1H-pyrazolo[4,3-b]pyridin-5-yl)-3-chlorophenyl)-2-hydroxycyclohexane-1-sulfonamide]: 1.12 µM.

On to `Nc1n[nH]c2ccc(-c3ccc(NS(=O)(=O)C4CCCCC4)cc3Cl)nc12` [Example 15, N-(4-(3-amino-1H-pyrazolo[4,3-b]pyridin-5-yl)-3-chlorophenyl)cyclohexanesulfonamide], for which the EC50 was 0.874 µM. As to `Nc1n[nH]c2ccc(-c3ccc(NS(=O)(=O)C4CCCCC4O)cc3Cl)nc12` (stereo not shown) [Example 17, N-(4-(3-amino-1H-pyrazolo[4,3-b]pyridin-5-yl)-3-chlorophenyl)-2-hydroxycyclohexane-1-sulfonamide], the EC50 was determined as 1.84 µM. For `Cc1cc(S(=O)(=O)N[C@@H]2CC[C@H](O)C2)ccc1-c1ccc2[nH]nc(N)c2n1` [Example 19, 4-(3-amino-1H-pyrazolo[4,3-b]pyridin-5-yl)-N-((1R,3S)-3-hydroxycyclopentyl)-3-methylbenzenesulfonamide], the EC50 amounted to 1.7 µM. As for `Cc1cc(S(=O)(=O)N[C@@H]2CCC[C@@H]2O)ccc1-c1ccc2[nH]nc(N)c2n1` [Example 20, 4-(3-amino-1H-pyrazolo[4,3-b]pyridin-5-yl)-N-((1R,2S)-2-hydroxycyclopentyl)-3-methylbenzenesulfonamide], the EC50 amounted to 0.797 µM. For the compound `N#Cc1cccc(S(=O)(=O)Nc2ccc(-c3ccc4[nH]nc(N)c4n3)c(Cl)c2)c1` [Example 22, N-(4-(3-amino-1H-pyrazolo[4,3-b]pyridin-5-yl)-3-chlorophenyl)-3-cyanobenzenesulfonamide], the EC50 turned out to be 0.035 µM.

On to `Nc1n[nH]c2ccc(-c3ccc(S(=O)(=O)N[C@@H]4CC[C@H](O)C4)cc3Cl)nc12` [Example 23, 4-(3-amino-1H-pyrazolo[4,3-b]pyridin-5-yl)-3-chloro-N-((1R,3S)-3-hydroxycyclopentyl)benzenesulfonamide], for which the EC50 stood at 2.28 µM. Same read-out and setting: the same measure for `CC1(C)CCC(NS(=O)(=O)c2ccc(-c3ccc4[nH]nc(N)c4n3)c(Cl)c2)CC1` [Example 24, 4-(3-amino-1H-pyrazolo[4,3-b]pyridin-5-yl)-3-chloro-N-(4,4-dimethylcyclohexyl)benzenesulfonamide]: 1.59 µM; for `Cc1ccc(S(=O)(=O)Nc2ccc(-c3ccc4[nH]nc(N)c4n3)c(Cl)c2)cc1` [Example 25, N-(4-(3-amino-1H-pyrazolo[4,3-b]pyridin-5-yl)-3-chlorophenyl)-4-methylbenzenesulfonamide]: 0.611 µM. On the same count and under the same terms, the same measure for `Cc1cc(S(=O)(=O)NC2(CO)CCCC2)ccc1-c1ccc2[nH]nc(N)c2n1` [Example 26, 4-(3-amino-1H-pyrazolo[4,3-b]pyridin-5-yl)-N-(1-(hydroxymethyl)cyclopentyl)-3-methylbenzenesulfonamide]: 0.811 µM.

Turning to `Nc1n[nH]c2ccc(-c3ccc(NS(=O)(=O)c4ccc(F)c(Cl)c4)cc3Cl)nc12` [Example 27, N-(4-(3-amino-1H-pyrazolo[4,3-b]pyridin-5-yl)-3-chlorophenyl)-3-chloro-4-fluorobenzenesulfonamide], the EC50 was found to be 1.08 µM. Same read-out and setting: next, `Nc1n[nH]c2ccc(-c3ccc(NS(=O)(=O)c4cccc(Cl)c4)cc3Cl)nc12` [Example 28, N-(4-(3-amino-1H-pyrazolo[4,3-b]pyridin-5-yl)-3-chlorophenyl)-3-chlorobenzenesulfonamide]: 2.5 µM. The same measure, in the same setting: next, `Nc1n[nH]c2ccc(-c3ccc(S(=O)(=O)N[C@@H]4CCC[C@H]4O)cc3Cl)nc12` [Example 29, 4-(3-amino-1H-pyrazolo[4,3-b]pyridin-5-yl)-3-chloro-N-((1R,2R)-2-hydroxycyclopentyl)benzenesulfonamide]: 1.91 µM. The same measure, in the same setting: next, `Nc1n[nH]c2ccc(-c3ccc(S(=O)(=O)NC4(CO)CCCC4)cc3Cl)nc12` [Example 30, 4-(3-amino-1H-pyrazolo[4,3-b]pyridin-5-yl)-3-chloro-N-(1-(hydroxymethyl)cyclopentyl)benzenesulfonamide]: 2.07 µM; `Cc1ccc(O)c(S(=O)(=O)Nc2ccc(-c3ccc4[nH]nc(N)c4n3)c(Cl)c2)c1` [Example 32, N-(4-(3-amino-1H-pyrazolo[4,3-b]pyridin-5-yl)-3-chlorophenyl)-2-hydroxy-5-methylbenzenesulfonamide]: 1.94 µM; `Cc1cc(NS(=O)(=O)c2cccc(F)c2)ccc1-c1ccc2[nH]nc(N)c2n1` [Example 33, N-(4-(3-amino-1H-pyrazolo[4,3-b]pyridin-5-yl)-3-methylphenyl)-3-fluorobenzenesulfonamide]: 1.02 µM. Turning to `Cc1cc(S(=O)(=O)N2CC(F)(F)CC2C(N)=O)ccc1-c1ccc2[nH]nc(N)c2n1` (stereo not shown) [Example 34, 1-((4-(3-amino-1H-pyrazolo[4,3-b]pyridin-5-yl)-3-methylphenyl)sulfonyl)-4,4-difluoropyrrolidine-2-carboxamide], the EC50 turned out to be 5.02 µM. Same read-out and setting: next, `Nc1n[nH]c2ccc(-c3ccc(S(=O)(=O)N[C@H]4CCC[C@H]4O)cc3Cl)nc12` [Example 35, 4-(3-amino-1H-pyrazolo[4,3-b]pyridin-5-yl)-3-chloro-N-((1S,2R)-2-hydroxycyclopentyl)benzenesulfonamide]: 2.73 µM.

The same experiment, now with this note: Mus musculus; further compounds not numbered as examples; read-out: EC50 in the Scx-Luc assay.
Regarding `Nc1n[nH]c2ccc(-c3ccc(S(=O)(=O)N4CCC[C@H]4CO)cc3Cl)nc12` [(S)-(1-((4-(3-amino-1H-pyrazolo[4,3-b]pyridin-5-yl)-3-chlorophenyl)sulfonyl)pyrrolidin-2-yl)methanol], the EC50 was more than 10 µM.

The experiment is the same for the next values; noted with them: further compounds not numbered as examples; read-out: EC50 in the Scx-Luc assay.
For the compound `Nc1n[nH]c2ccc(-c3ccc(S(=O)(=O)NC4CCC(O)(C(F)(F)F)CC4)cc3Cl)nc12` [4-(3-amino-1H-pyrazolo[4,3-b]pyridin-5-yl)-3-chloro-N-((1R,4R)-4-hydroxy-4-(trifluoromethyl)cyclohexyl)benzenesulfonamide], the EC50 is more than 10 µM.

The values above are taken from patent publication US10766894B2, “Aza-indazole compounds for use in tendon and/or ligament injuries” (NOVARTIS AG, priority 2016, dated 2020).
